Assay results reported in patent publication US20210284639A1, “TYROSINE AMIDE DERIVATIVES AS RHO- KINASE INHIBITORS” (CHIESI FARMACEUTICI S.p.A., priority 2018, published 2021).

What was measured:
ROCK 1 (Rho kinase 1) = ROCK 1 (Rho kinase 1) (Homo sapiens, UniProt Q13464); experiment: In vitro inhibitory activity assay (ADP-Glo), Rho kinase 1; format: biochemical; details: Ki by Cheng-Prusoff from IC50; 10 μM ATP, 25° C.
Protocol: (§1) In Vitro Inhibitory Activity Assay Description
(§2) The effectiveness of compounds of the present invention to inhibit Rho kinase activity can be determined in a 10 μl assay containing 40 mM Tris pH7.5, 20 mM MgCl2 0.1 mg/ml BSA, 50 μM DTT and 2.5 μM peptide substrate (Myelin Basic Protein) using an ADP-Glo kit (Promega). Compounds were dissolved in DMSO such that the final concentration of DMSO was 1% in the assay. All reactions/incubations are performed at 25° C. Compound (2 μl) and either Rho kinase 1 or 2 (4 μl) were mixed and incubated for 30 mins. Reactions were initiated by addition of ATP (4 μl) such that the final concentration of ATP in the assay was 10 μM. After a 1 hour incubation 10 μl of ADP-Glo Reagent was added and after a further 45 minute incubation 20 μl of Kinase Detection Buffer was added and the mixture incubated for a further 30 minutes. The luminescent signal was measured on a luminometer. […] Compounds were tested in dose-response format and the inhibition of kinase activity was calculated at each concentration of compound. To determine the IC50 (concentration of compound required to inhibit 50% of the enzyme activity) data were fit to a plot of % inhibition vs Log10 compound concentration using a sigmoidal fit with a variable slope and fixing the maximum to 100% and the minimum to 0%. To determine the Ki values the Cheng-Prusoff equation was utilized (Ki=IC50/(1+[S]/Km).

ROCK 2 (Rho kinase 2) = ROCK 2 (Rho kinase 2) (Homo sapiens, UniProt O75116); experiment: In vitro inhibitory activity assay (ADP-Glo), Rho kinase 2; format: biochemical; details: Ki by Cheng-Prusoff from IC50; 10 μM ATP, 25° C.
Chain of ROCK 2 (Rho kinase 2) (O75116 whole entry): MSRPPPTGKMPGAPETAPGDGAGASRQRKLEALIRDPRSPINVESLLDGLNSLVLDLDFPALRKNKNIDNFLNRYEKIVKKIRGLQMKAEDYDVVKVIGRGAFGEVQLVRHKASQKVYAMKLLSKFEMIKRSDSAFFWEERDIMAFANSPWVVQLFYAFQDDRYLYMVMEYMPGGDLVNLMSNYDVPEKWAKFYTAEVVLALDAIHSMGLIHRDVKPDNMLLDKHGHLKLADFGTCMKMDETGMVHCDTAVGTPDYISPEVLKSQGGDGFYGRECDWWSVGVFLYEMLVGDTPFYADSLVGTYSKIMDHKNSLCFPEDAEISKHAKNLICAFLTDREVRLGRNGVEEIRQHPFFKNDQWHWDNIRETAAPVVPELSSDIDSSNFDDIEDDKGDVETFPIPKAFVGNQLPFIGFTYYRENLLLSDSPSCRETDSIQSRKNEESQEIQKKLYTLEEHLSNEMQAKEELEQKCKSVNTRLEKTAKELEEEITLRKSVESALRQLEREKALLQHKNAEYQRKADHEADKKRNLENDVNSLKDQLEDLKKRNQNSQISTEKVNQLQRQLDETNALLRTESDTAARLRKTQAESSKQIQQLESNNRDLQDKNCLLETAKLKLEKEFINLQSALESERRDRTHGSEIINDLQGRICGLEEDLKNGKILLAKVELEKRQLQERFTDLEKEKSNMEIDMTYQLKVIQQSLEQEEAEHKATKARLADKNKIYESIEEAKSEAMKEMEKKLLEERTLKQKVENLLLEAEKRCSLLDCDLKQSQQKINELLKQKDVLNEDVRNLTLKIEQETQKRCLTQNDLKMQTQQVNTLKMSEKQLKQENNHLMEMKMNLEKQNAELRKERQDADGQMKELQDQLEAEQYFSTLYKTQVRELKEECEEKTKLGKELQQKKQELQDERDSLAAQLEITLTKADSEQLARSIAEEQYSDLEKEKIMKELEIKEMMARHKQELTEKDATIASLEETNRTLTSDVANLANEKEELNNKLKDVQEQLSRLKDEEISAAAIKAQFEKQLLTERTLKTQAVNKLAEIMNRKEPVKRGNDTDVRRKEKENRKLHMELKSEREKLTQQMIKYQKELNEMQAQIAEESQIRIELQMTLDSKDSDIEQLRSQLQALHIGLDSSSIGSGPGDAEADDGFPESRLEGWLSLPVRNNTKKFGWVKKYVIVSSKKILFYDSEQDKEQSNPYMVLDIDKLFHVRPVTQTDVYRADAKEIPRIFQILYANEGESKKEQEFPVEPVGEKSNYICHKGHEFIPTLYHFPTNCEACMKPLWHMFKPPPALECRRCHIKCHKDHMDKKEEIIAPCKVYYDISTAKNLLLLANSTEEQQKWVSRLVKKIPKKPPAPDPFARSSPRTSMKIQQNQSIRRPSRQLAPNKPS
Protocol: as §1, §2

Chain of ROCK 1 (Rho kinase 1) (Q13464 whole entry): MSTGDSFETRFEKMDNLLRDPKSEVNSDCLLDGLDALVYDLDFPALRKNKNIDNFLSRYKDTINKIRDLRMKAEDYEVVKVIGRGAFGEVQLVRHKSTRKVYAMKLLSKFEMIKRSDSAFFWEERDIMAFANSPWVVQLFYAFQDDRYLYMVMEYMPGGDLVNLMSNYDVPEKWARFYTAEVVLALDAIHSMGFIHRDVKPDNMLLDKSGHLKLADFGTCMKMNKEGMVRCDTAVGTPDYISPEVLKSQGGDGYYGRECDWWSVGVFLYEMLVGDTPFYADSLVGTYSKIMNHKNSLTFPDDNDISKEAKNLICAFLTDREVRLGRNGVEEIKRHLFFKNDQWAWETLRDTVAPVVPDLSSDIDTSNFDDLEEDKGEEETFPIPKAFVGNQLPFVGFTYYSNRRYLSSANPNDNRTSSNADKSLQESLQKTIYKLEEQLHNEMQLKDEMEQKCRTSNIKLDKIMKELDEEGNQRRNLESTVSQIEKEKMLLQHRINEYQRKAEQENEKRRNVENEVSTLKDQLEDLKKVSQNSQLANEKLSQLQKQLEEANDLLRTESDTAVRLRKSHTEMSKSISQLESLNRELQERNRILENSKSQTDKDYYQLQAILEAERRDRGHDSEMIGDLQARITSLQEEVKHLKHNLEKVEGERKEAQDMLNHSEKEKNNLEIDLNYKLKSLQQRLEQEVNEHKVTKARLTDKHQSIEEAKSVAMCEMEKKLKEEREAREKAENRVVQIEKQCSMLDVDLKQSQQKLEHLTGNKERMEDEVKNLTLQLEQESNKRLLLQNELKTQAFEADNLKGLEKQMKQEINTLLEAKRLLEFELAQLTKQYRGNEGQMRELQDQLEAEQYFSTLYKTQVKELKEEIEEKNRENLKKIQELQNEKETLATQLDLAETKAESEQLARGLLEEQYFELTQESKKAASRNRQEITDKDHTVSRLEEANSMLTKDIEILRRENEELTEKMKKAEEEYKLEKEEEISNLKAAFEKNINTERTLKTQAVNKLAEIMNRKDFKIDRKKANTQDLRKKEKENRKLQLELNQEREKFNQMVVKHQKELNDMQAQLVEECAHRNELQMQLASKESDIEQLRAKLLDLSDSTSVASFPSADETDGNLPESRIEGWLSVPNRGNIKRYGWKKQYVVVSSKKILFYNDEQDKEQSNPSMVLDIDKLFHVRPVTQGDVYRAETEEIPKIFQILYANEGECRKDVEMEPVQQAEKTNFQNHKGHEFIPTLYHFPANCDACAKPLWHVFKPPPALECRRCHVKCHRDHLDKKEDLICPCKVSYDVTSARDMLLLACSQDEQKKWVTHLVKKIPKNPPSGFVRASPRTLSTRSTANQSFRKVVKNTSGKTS

Row | Structure (SMILES) | Ki (ROCK 1 (Rho kinase 1)) [nM] | Ki (ROCK 2 (Rho kinase 2)) [nM]
1 | Cc1c[nH]c2nccc(Oc3ccc(C[C@H](N)C(=O)NC4CCN(C)CC4(C)C)cc3F)c12 (single isomer, unassigned) [Example 8a] | < 3 | < 3
2 | Cc1c[nH]c2nccc(Oc3ccc(C[C@H](N)C(=O)NC4CCN(C)CC4(C)C)cc3F)c12 (single isomer, unassigned) [Example 8b] | < 3 | < 3
3 | Cc1c[nH]c2nccc(Oc3ccc(C[C@H](N)C(=O)NC4CCCN(C)C4)cc3F)c12 (single isomer, unassigned) [Example 17] | 3 to 30 | 3 to 30
4 | Cc1c[nH]c2nccc(Oc3ccc(C[C@H](N)C(=O)NC4CCCN(C)C4)cc3F)c12 (single isomer, unassigned) [Example 18] | 3 to 30 | 3 to 30
5 | Cc1c[nH]c2nccc(Oc3ccc(C[C@H](N)C(=O)NC4CCN(C5CCC5)CC4)cc3F)c12 [Example 1, (S)-2-Amino-N-(1-cyclobutylpiperidin-4-yl)-3-(3-fluoro-4-((3-methyl-1H-pyrrolo[2,3-b]pyridin-4-yl)oxy)phenyl)propanamide] | < 3 | < 3
6 | Cc1c[nH]c2nccc(Oc3ccc(C[C@H](N)C(=O)NC4CCN(C5CCOC5)CC4)cc3F)c12 (stereo partly drawn) [Example 2, (2S)-2-Amino-3-(3-fluoro-4-((3-methyl-1H-pyrrolo[2,3-b]pyridin-4-yl)oxy)phenyl)-N-(1-(tetrahydrofuran-3-yl)piperidin-4-yl)propanamide] | < 3 | < 3
7 | Cc1c[nH]c2nccc(Oc3ccc(C[C@H](N)C(=O)NC4CCN(C5COC5)CC4)cc3F)c12 [Example 3, (S)-2-Amino-3-(3-fluoro-4-((3-methyl-1H-pyrrolo[2,3-b]pyridin-4-yl)oxy)phenyl)-N-(1-(oxetan-3-yl)piperidin-4-yl)propanamide] | < 3 | < 3
8 | Cc1c[nH]c2nccc(Oc3ccc(C[C@H](N)C(=O)NC4(C)CCN(C)CC4)cc3F)c12 [Example 4, (S)-2-Amino-N-(1,4-dimethylpiperidin-4-yl)-3-(3-fluoro-4-((3-methyl-1H-pyrrolo[2,3-b]pyridin-4-yl)oxy)phenyl)propanamide] | < 3 | < 3
9 | Cc1c[nH]c2nccc(Oc3ccc(C[C@H](N)C(=O)NC4CCN(C5CC5)CC4)cc3F)c12 [Example 5, (S)-2-Amino-N-(1-cyclopropylpiperidin-4-yl)-3-(3-fluoro-4-((3-methyl-1H-pyrrolo[2,3-b]pyridin-4-yl)oxy)phenyl)propanamide] | < 3 | < 3
10 | Cc1c[nH]c2nccc(Oc3ccc(C[C@H](N)C(=O)NC4CCN(CC(C)C)CC4)cc3F)c12 [Example 6, (S)-2-Amino-3-(3-fluoro-4-((3-methyl-1H-pyrrolo[2,3-b]pyridin-4-yl)oxy)phenyl)-N-(1-isobutylpiperidin-4-yl)propanamide] | < 3 | < 3
11 | CCN1CCC(NC(=O)[C@@H](N)Cc2ccc(Oc3ccnc4[nH]cc(C)c34)c(F)c2)CC1 [Example 7, (S)-2-Amino-N-(1-ethylpiperidin-4-yl)-3-(3-fluoro-4-((3-methyl-1H-pyrrolo[2,3-b]pyridin-4-yl)oxy)phenyl)propanamide] | < 3 | < 3
12 | Cc1c[nH]c2nccc(Oc3ccc(C[C@H](N)C(=O)N4CCC(O)(CO)CC4)cc3F)c12 [Example 9, (S)-2-Amino-3-(3-fluoro-4-((3-methyl-1H-pyrrolo[2,3-b]pyridin-4-yl)oxy)phenyl)-1-(4-hydroxy-4-(hydroxymethyl)piperidin-1-yl)propan-1-one] | < 3 | < 3
13 | Cc1c[nH]c2nccc(Oc3ccc(C[C@H](N)C(=O)N[C@@H]4CCN(C)C4)cc3F)c12 [Example 10, (S)-2-Amino-3-(3-fluoro-4-((3-methyl-1H-pyrrolo[2,3-b]pyridin-4-yl)oxy)phenyl)-N-((R)-1-methylpyrrolidin-3-yl)propanamide] | < 3 | < 3
14 | Cc1c[nH]c2nccc(Oc3ccc(C[C@H](N)C(=O)N4CCN(C)CC45CC5)cc3F)c12 [Example 11, (S)-2-Amino-3-(3-fluoro-4-((3-methyl-1H-pyrrolo[2,3-b]pyridin-4-yl)oxy)phenyl)-1-(7-methyl-4,7-diazaspiro[2.5]octan-4-yl)propan-1-one] | 3 to 30 | < 3
15 | Cc1c[nH]c2nccc(Oc3ccc(C[C@H](N)C(=O)N4C[C@@H]5CN(C6CC6)C[C@@H]5C4)cc3F)c12 [Example 12, (S)-2-Amino-1-((3aR,6aS)-5-cyclopropylhexahydropyrrolo[3,4-c]pyrrol-2(1H)-yl)-3-(3-fluoro-4-((3-methyl-1H-pyrrolo[2,3-b]pyridin-4-yl)oxy)phenyl)propan-1-one] | < 3 | < 3
16 | Cc1c[nH]c2nccc(Oc3ccc(C[C@H](N)C(=O)N4C[C@@H]5C[C@H]4CN5C4CC4)cc3F)c12 [Example 13, (S)-2-Amino-1-((1S,4S)-5-cyclopropyl-2,5-diazabicyclo[2.2.1]heptan-2-yl)-3-(3-fluoro-4-((3-methyl-1H-pyrrolo[2,3-b]pyridin-4-yl)oxy)phenyl)propan-1-one] | < 3 | < 3
17 | COCCN1CCC(NC(=O)[C@@H](N)Cc2ccc(Oc3ccnc4[nH]cc(C)c34)c(F)c2)CC1 [Example 14, (S)-2-Amino-3-(3-fluoro-4-((3-methyl-1H-pyrrolo[2,3-b]pyridin-4-yl)oxy)phenyl)-N-(1-(2-methoxyethyl)piperidin-4-yl)propanamide] | < 3 | < 3
18 | Cc1c[nH]c2nccc(Oc3ccc(C[C@H](N)C(=O)NC4CCN(CCCF)CC4)cc3F)c12 [Example 15, (S)-2-Amino-3-(3-fluoro-4-((3-methyl-1H-pyrrolo[2,3-b]pyridin-4-yl)oxy)phenyl)-N-(1-(3-fluoropropyl)piperidin-4-yl)propanamide] | < 3 | < 3
19 | Cc1c[nH]c2nccc(Oc3ccc(C[C@H](N)C(=O)NC4CCN(CC5CC5)CC4)cc3F)c12 [Example 16, (S)-2-Amino-N-(1-(cyclopropylmethyl)piperidin-4-yl)-3-(3-fluoro-4-((3-methyl-1H-pyrrolo[2,3-b]pyridin-4-yl)oxy)phenyl)propanamide] | < 3 | < 3
20 | Cc1c[nH]c2nccc(Oc3ccc(C[C@H](N)C(=O)N4CCC(NC5CC5)CC4)cc3F)c12 [Example 19, (S)-2-Amino-1-(4-(cyclopropylamino)piperidin-1-yl)-3-(3-fluoro-4-((3-methyl-1H-pyrrolo[2,3-b]pyridin-4-yl)oxy)phenyl)propan-1-one] | < 3 | < 3
21 | Cc1c[nH]c2nccc(Oc3ccc(C[C@H](N)C(=O)NC4(CO)CCN(C5CC5)CC4)cc3F)c12 [Example 20, (S)-2-Amino-N-(1-cyclopropyl-4-(hydroxymethyl)piperidin-4-yl)-3-(3-fluoro-4-((3-methyl-1H-pyrrolo[2,3-b]pyridin-4-yl)oxy)phenyl)propanamide] | < 3 | < 3
22 | Cc1c[nH]c2nccc(Oc3ccc(C[C@H](N)C(=O)NC4(C(N)=O)CCN(C5CC5)CC4)cc3F)c12 [Example 21, (S)-4-(2-Amino-3-(3-fluoro-4-((3-methyl-1H-pyrrolo[2,3-b]pyridin-4-yl)oxy)phenyl)propanamido)-1-cyclopropylpiperidine-4-carboxamide] | < 3 | < 3
